Values after ≈ are worked out from the molar mass of the structure shown.
What was measured:
[1] = tested on: S. aureus Smith; assay: M.I.C, S. aureus Smith; format: cell-based; conditions: Staphylococcus aureus, in vivo
[2] = tested on: S. epidermidis PHLN20; assay: In vitro MIC, S. epidermidis PHLN20; format: cell-based; conditions: Staphylococcus epidermidis
Excerpt: (§1) |In Vitro Biological Data.

[3] = tested on: S. aureus MB9; assay: In vitro MIC, S. aureus MB9; format: cell-based; conditions: for MIC: Staphylococcus aureus; for (M.I.C): in vivo
Excerpt: as §1

[4] = tested on: S. aureus MB9; assay: In vivo experimental infection in mice, S. aureus MB9; conditions: Staphylococcus aureus, sc, subcutaneous, dosed at 1 and 5 hours after infection, 5 mice/group, read-out: Total S.C. CD50
Procedure: (§2) In Vivo Biological Data.
(§3) The compound of example 4 was tested in vivo in mice
(§4) against experimental infections. The results of these
(§5) *dosed at 1 and 5 hours after infection. 5 mice/group.

[5] = tested on: S. aureus Oxford; assay: In vitro MIC, S. aureus Oxford; format: cell-based; conditions: Staphylococcus aureus
Excerpt: as §1

[6] = tested on: S. aureus Smith; assay: In vivo experimental infection in mice, S. aureus Smith; conditions: Staphylococcus aureus, sc, subcutaneous, dosed at 1 and 5 hours after infection, 5 mice/group, read-out: Total S.C. CD50
Procedure: as §2, §3, §4, §5

[7] = tested on: H. influenzae NEMCl; assay: In vitro MIC, H. influenzae NEMCl; format: cell-based; conditions: Haemophilus influenzae
Excerpt: as §1

[8] = tested on: B. catarrhalis Ravasio; assay: In vitro MIC, B. catarrhalis Ravasio; format: cell-based; conditions: Moraxella catarrhalis
Excerpt: as §1

[9] = tested on: H. influenzae Q1; assay: In vitro MIC, H. influenzae Q1; format: cell-based; conditions: Haemophilus influenzae
Excerpt: as §1

[10] = tested on: S. pneumoniae 1761; assay: In vitro MIC, S. pneumoniae 1761; format: cell-based; conditions: Streptococcus pneumoniae
Excerpt: as §1

[11] = tested on: S. aureus V573; assay: In vitro MIC, S. aureus V573 (methicillin resistant strain); format: cell-based; conditions: Staphylococcus aureus
Excerpt: In Vitro Biological Data.
(+ = methicillin resistant strain)

[12] = Blood concentration in mice after subcutaneous administration; format: in vivo; conditions: mouse, sc, 50 mg/kg
Procedure: The compound of example 4 was administered to mice (5) by the subcutaneous route at a dosage of 50 mg/kg and the blood concentration determined.

| SMILES | MIC [1] | MIC [2] | MIC [3] | (M.I.C) [3] | ED50 [4] | MIC [5] | ED50 [6] | MIC [7] | MIC [8] | MIC [9] | MIC [10] | MIC [11] | AUC [12] | concentration at 5 min ([12]; 5 mins) | concentration at 10 min ([12]; 10 mins) | concentration at 20 min ([12]; 20 mins) | concentration at 0.5 h ([12]; 30 mins) | concentration at 1 h ([12]; 60 mins) | concentration at 2 h ([12]; 120 mins) |
| --- | --- | --- | --- | --- | --- | --- | --- | --- | --- | --- | --- | --- | --- | --- | --- | --- | --- | --- | --- |
| Cc1onc(-c2c(F)cccc2Cl)c1C(=O)N[C@@H]1C(=O)N2[C@@H]1SC(C)(C)[C@@H]2C(=O)O [flucloxacillin, reference compound] | 0.25 µg/mL (≈ 0.551 µM) | 0.25 µg/mL (≈ 0.551 µM) | 0.5 µg/mL (≈ 1.1 µM) | 0.5 µg/mL | 17 mg/kg | 0.25 µg/mL (≈ 0.551 µM) | 6 mg/kg | 16 µg/mL (≈ 35.3 µM) | 16 µg/mL (≈ 35.3 µM) | 4 µg/mL (≈ 8.81 µM) | 0.25 µg/mL (≈ 0.551 µM) | 32 µg/mL (≈ 70.5 µM) | – | – | – | – | – | – | – |
| CC1(C)S[C@@H]2[C@H](NC(=O)/C(=N\OC3CCCCC3)c3csc(N)n3)C(=O)N2[C@H]1C(=O)O [Example 4, Sodium 6β-[2-(2-aminothiazol-4-yl)-(Z)-2-cyclohexyloxyiminoacetamido]penicillanate] | 0.12 µg/mL | 0.25 µg/mL | 0.5 µg/mL | 0.5 µg/mL | 4 mg/kg | 0.12 µg/mL | 1.5 mg/kg | 0.5 µg/mL | 0.25 µg/mL | 0.12 µg/mL | < 0.03 µg/mL | 4 µg/mL | 9520 ng·h/mL | 31000 ng/mL | 21800 ng/mL | 14300 ng/mL | 7700 ng/mL | 900 ng/mL | < 90 ng/mL |

From patent US4816452A, “Aminothiazole substituted penicillins and antibacterial compositions thereof” (Beecham Group P.L.C., priority 1985, dated 1989)
